Columns and labels:
[1] = test system: OCSCs (CD44+/MyD88+ ovarian cancer stem cells); experiment: OCSC growth, morphology, RFP+ cell count and Celltox cell death (kinetic live cell imaging); assay type: cell-based, human
Protocol: (§1) CD44+/MyD88+ ovarian cancer stem cell clones (OCSC1 and OCSC2) and CD44−/MyD88− ovarian cancer cells (OCC1 and OCC2) were isolated from either tumor tissue or ascites obtained from patients diagnosed with stage III/IV serous ovarian cancer and propagated (Alvero, et al., 2009, Cell Cycle 8:158-166; Chefetz, et al., 2013, Cell Cycle 12:511-521). The epithelial nature of the isolated cells was determined by immunostaining for Ck18. Purity of the cultures based on CD44 expression by flow cytometry and chemoresistance were routinely tested. Stable expression of nuclear-restricted red fluorescent (in OCSCs) or green fluorescent proteins (in OCCs) was performed by transduction using NUCLIGHT® Red or Green Lentivirus Reagent (Essen Bioscience, Ann Arbor, Mich.). Spheroids were formed from OCSCs by culturing in ultra-low attachment multi-well plates (Corning, Inc., Corning, N.Y.).
(§2) Effect of each compound on cell morphology, growth, and viability was assessed using a kinetic live cell imaging system (Incucyte, Essen Bioscience). Proliferation was calculated as previously described (Alvero, et al., 2011, Mol. Cancer Ther. 10:1385-1393) using metrics from either confluence or fluorescent count from nuclear-restricted RFP or GFP. Cell death was quantified; similarly CELLTOX® Green Cytotoxicity Assay (Promega, Madison, Wis.). IC50 was calculated as described using GraphPad Prism (GraphPad Software Inc., LaJolla, Calif.).
In vitro, conventional chemotherapeutic drugs had negligible effect on OCSC growth even in the μM range (FIG. 1B).
TRX-E-002 exists as a racemic mixture comprised of two enantiomers, enantiomer A (TRX-E-002-1) and enantiomer B (TRX-E-002-2). Thus, the enantiomers were separated and assessed separately. To distinguish between an analog's cytostatic or cytotoxic activity, OCSC clones that are stably transfected with nuclear-restricted RFP were used, which allows an accurate quantification of the number of cells and can be multiplexed with CELLTOX® assay to concomitantly measure the number of dead cells.

[2] = test system: co-culture of RFP-labeled OCSC2 and GFP-labeled OCC2; experiment: In vitro co-culture model 50% RFP-OCSC2 / 50% GFP-OCC2; assay type: cell-based; details: co-culture 50/50; TRX-E-002-1 0.12 μM, Cisplatin 20 μM
Protocol: as §1, §2
Without wishing to be limited by any theory, response to chemotherapy may be modified by cross-talk among different cancer cell types within the tumor. Thus, to mimic the heterogeneity of ovarian tumors an in vitro co-culture model consisting of RFP-labeled chemoresistant OCSC2 and GFP-labeled chemosensitive OCC2 was used. The co-cultures, which are comprised of 50% RFP-OCSC2 and 50% GFP-OCC2 at time of treatment, were exposed to TRX-E-002-1, cisplatin, or the combination of both. Since GFP-OCC2 has faster doubling time than RFP-OCSC2, it overtook the control co-cultures by the end of the experiment and thus the control co-cultures are mainly comprised of GFP-OCC2 by the 24 h time-point (FIG. 2B).

OCSC2 spheroids = experiment: 3D spheroid integrity by kinetic imaging; assay type: cell-based, human; details: compared to the control; dose-dependent
Protocol: as §1
Spheroids represent a 3D in vitro tumor model of multiple cell layers that mimic tumors in vivo. In ovarian cancer, spheroid cultures not only mimic ovarian solid tumors, but also ovarian cancer cells found in malignant ascites. Spheroid cultures allow one to test the capacity of compounds to diffuse through multiple layers of cells and induce cell death. It further allows one to test the efficacy of treatment against the mesenchymal cancer subtype. […]

cleaved/active caspase-3 = experiment: Western blot for cleaved caspase-3 in OCSC transfected with scramble or c-Jun siRNA; assay type: cell-based, human; details: 2.45 μM for 2 hours then recovery
Protocol: SDS-PAGE and Western blots were performed using 20 μg of total protein lysate as described in Kamsteeg, et al., 2003, Oncogene 22:2611-2620. Antibodies used were: mouse anti-phospho ERK (Santa Cruz Biotechnology, Inc., Dallas, Tex.); rabbit anti-phospho c-Jun, rabbit anti c-Jun, rabbit anti-ERK, rabbit anti-cleaved caspase 3 all from Cell Signaling Technology, Danvers, Mass.; and mouse anti-GAPDH (Sigma-Aldrich).
To determine the requirement for c-Jun activation in TRX-E-002-1-induced apoptosis, siRNA was used to knock-down c-Jun in chemoresistant OCSC. […] This upregulation was maintained, even when treatment was removed and cells were allowed to recover (FIG. 5C).

[3] = test system: i.p. tumors of mCherry+OCSC1-F2 ovarian cancer cells; experiment: Intra-peritoneal ovarian cancer xenograft, primary disease dose response; assay type: in vivo, athymic nude mice
Protocol: The Yale University Institutional Animal Care and Use Committee approved all in vivo studies described. Intra-peritoneal tumors were established in athymic nude mice using 4×10^6 mCherry+OCSC1-F2 ovarian cancer cells (Craveiro, et al., 2013, Cancer Med. 2:751-762). […] Establishment of i.p. tumors was confirmed by live imaging (In-Vivo FX PRO, Bruker Corp., Billerica, Mass.) prior to treatment. TRX-E-002-1 was prepared in 20% Captisol or Dexsolve and administered daily at 50 mg/kg or 100 mg/kg. Paclitaxel was given at 12 mg/kg q3d and Cisplatin at 5 mg/kg weekly. All treatments were given i.p. Tumor growth was monitored q3d by live imaging and response to treatment was assessed using ROI area.
An intra-peritoneal (i.p.) recurrent ovarian cancer xenograft model established using ovarian cancer cells stably expressing mCherry fluorescence has been established. This allows the detection of i.p. tumors and real-time measurement of response during the course of treatment. This model recapitulates the clinical profile typically seen in patients with ovarian cancer and helps one answer three questions: (1) in vivo activity of TRX-E-002-1 against primary disease; (2) ability of TRX-E-002-1 given in combination with chemotherapy to prevent/delay recurrence; and (3) ability of TRX-E-002-1 given as maintenance after chemotherapy to prevent/delay recurrence.
To determine activity against primary disease as well as to determine the maximum tolerated dose (MTD), a dose response study was performed. […] Animals however recovered from the distension upon cessation of treatment. […] Thus, the MTD was established at daily 100 mg/kg i.p. and this dose was employed for the succeeding studies employing combination treatment.

COc1cc(C2COc3c(ccc(O)c3C)C2c2ccc(O)cc2)cc(OC)c1O (single isomer, unassigned) [TRX-E-002-1]
number of nuclear RFP+ cells ([1]; RFP OCSC clones, TRX-E-002-1 beginning at the 0.245 μM dose, TRX-E-002-2 except for the very high dose of 10 μM): significant decrease
number of Celltox-positive cells ([1]; beginning at the 0.245 μM dose): concomitant increase
number of GFP+ cells (GFP-OCC2) [2]: markedly reduced
number of mCherry+ cells (RFP-OCSC2) [2]: markedly reduced
amount of intact spheroids (OCSC2 spheroids): significantly decreased
cleaved/active caspase-3 (cleaved/active caspase-3; c-Jun knocked-down by siRNA): not detectable
cleaved/active caspase-3 (cleaved/active caspase-3; scramble siRNA): appearance of cleaved/active caspase-3
tumor burden compared to vehicle control ([3]; 50 mg/kg daily i.p., starting at day 14): significant reduction
residual disease at completion of the treatment ([3]; 100 mg/kg daily i.p.): very little residual disease
p-c-Jun and total c-Jun in residual tumors ([3]; 100 mg/kg daily i.p., Western blot): upregulation
tumor burden compared to vehicle control ([3]; 100 mg/kg daily i.p., starting at day 10): significant reduction
tumor burden ([3]; 150 mg/kg i.p. three times weekly, by the 10th dose): significant decrease
